The target in one assay is T1, NDM-1 (Klebsiella pneumoniae, UniProt C7C422).
T1 construct: made in house; host or cells: E. coli
The assay can be described thus: Fluorogenic β-lactamase inhibition assay (FC-5 substrate), NDM-1. It counts as biochemical. As to the method:
(§1) Kinetic and inhibition analyses, and ^19F NMR studies[10] against bacterial β-lactamases were performed as described. The FC-5 cephalosporin[9] was used as substrate for BcII, VIM-2, IMP-1, NDM-1, SPM-1, TEM-1 and OXA-10, meropenem[28] for CphA and nitrocefin[34] for PBP 3 and PBP 5.
(§2) In brief IC50 values were determined by preincubation of the appropriate amount of enzyme with the cyclic boronates in the assay buffers for 10 min at room temperature prior to the initiation of the assay by the addition of the appropriate substrate. The enzyme concentrations used are the following: 1 nM BcII, 100 nM VIM-2, 10 nM IMP-1, 10 nM NDM-1, 1 nM SPM-1, 1 nM TEM-1, 1 nM OXA-10, 2.5 nM CphA, 4 μM PBP 3 and 5 μM PBP 5; note that the final concentrations are stated. The assay buffers used are the following: 50 mM HEPES, pH 7.2 supplemented with 1 μg BSA, 1 μg ZnSO4 and 0.01% Triton for BcII, VIM-2, IMP-1, NDM-1 and SPM-1, 15 mM MES, pH 6.5 for CphA, 50 mM HEPES, pH 7.2 supplemented with 200 mM NaCl and 0.01% Triton 100 for TEM-1, 100 mM sodium phosphate, pH 7.2 supplemented with 50 mM NaHCO3 and 0.01% Triton 100 for OXA-10 and 50 mM HEPES, pH 7.2 supplemented with 200 mM NaCl and 0.01% Triton 100 for PBP 3 and PBP 5. The amount of substrates used is the following: 5 μM for BcII, VIM-2, IMP-1, NDM-1 and SPM-1, 10 μM for TEM-1 and OXA-10, 125 μM for CphA and 25 μM for PBP 3 and PBP 5; note that the final concentrations are stated.
(§3) The experiments were performed using a PHERAstar FS microplate reader (BMG Labtech) at room temperature (24–25 °C). All enzymes and inhibitors were prepared in the specific assay buffer. The kinetic values in this study are the means from at least three independent measurements; at least nine different concentrations of the inhibitor were used to determine the kinetic parameters (IC50). The IC50 values were determined using the software package Graph Prism 5.

In the next assay the target is SPM-1 (Pseudomonas aeruginosa, UniProt Q8G9Q0). The assay can be described thus: Fluorogenic β-lactamase inhibition assay (FC-5 substrate), SPM-1. Format: biochemical. As to the method:
as §1, §2, §3

For a further assay, the target named is T2, CphA (Aeromonas hydrophila, UniProt P26918).
T2 construct: made in house; host or cells: E. coli
The assay can be described thus: B2 MBL inhibition assay (meropenem substrate), CphA. Format: biochemical, Aeromonas hydrophilia. The procedure:
as §1, §2, §3

In a further assay the target is T3, TEM-1 (Escherichia coli, UniProt P62593).
T3 construct: made in house; host or cells: E. coli
The assay can be described thus: Fluorogenic β-lactamase inhibition assay (FC-5 substrate), TEM-1. Format: biochemical. As to the method:
as §1, §2, §3

For another assay, the target named is T4, OXA-10 (Pseudomonas aeruginosa, UniProt P14489).
T4 construct: made in house; host or cells: E. coli
Briefly: Fluorogenic β-lactamase inhibition assay (FC-5 substrate), OXA-10. Format: biochemical. As to the method:
as §1, §2, §3

The next assay concerns the target T5, PBP 3 (Pseudomonas aeruginosa, UniProt G3XD46).
T5 construct: made in house; host or cells: E. coli
The assay can be described thus: PBP inhibition assay (nitrocefin substrate), PBP 3. It counts as biochemical. To be noted: NI = no inhibition at 100 μM, read-out: IC50 (μM)/pIC50 (converted). As to the method: as §1, §2, §3

The test system of assay [1] is K. pneumoniae Ecl8 pSU18:NDM-1. Briefly: MIC by broth microdilution and checkerboard. It counts as cell-based. The following applies: Klebsiella pneumoniae, read-out: 2 MIC, 2 alone; Ecl8 pSU18:NDM-1 (blaSHV-1; blaNDM-1). The text has this:
(§4) Bacterial strains: E. coli ATCC 25922 (ref. [35]) and K. pneumoniae NCTC 5055 (ref. [36]) were used as reference strains. K. pneumoniae Ecl8 (ref. [16]) and its ramR knock-out[37] were used as previously described. K. pneumoniae strain IR8 (ref. [40]), and E. coli strains IR10 and IR60 (ref. [17]) were generous gifts of Prof. T.R. Walsh. Plasmid pSU18:NDM-1 contains the complete blaNDM-1 open reading frame, together with its promoter, cloned into plasmid pSU18 (ref. [41]). The recombinant plasmid was made by PCR amplifying the blaNDM-1 gene and surrounding sequences from E. coli IR10 with primers NDM1F 5′- […] -3′ and NDM1R 5′- GGCGATGACAGCATCATC -3′, TA cloning the amplicon into pCR2.1 TOPO (Invitrogen) and subcloning into pSU18 using BamHI and XbaI.
(§5) MIC values were determined by broth microdilution, in triplicate, in cation-adjusted Mueller Hinton broth (Sigma) according to the Clinical Laboratory Standards Institute (CLSI) guidelines. Experiments were carried out in microtitre plates (Corning) containing the medium plus meropenem (Sequoia Research Products, Pangbourne, UK) and/or inhibitor 2 as appropriate. Chloramphenicol (20 μg ml^−1) was included in assays of strains (K. pneumoniae Ecl8 and derivative) that carried pSU18 plasmids or derivatives (pSU18:NDM-1) to ensure maintenance of plasmids throughout. Inhibitor 2 was dissolved in DMSO to 100 mg ml^−1 and diluted in broth. The final concentration of DMSO in the assays was kept constant at 0.01% (experiments using 10 μg ml^−1 inhibitor) or 0.03% (experiments using 25 μg ml^−1 inhibitor). Plates were incubated overnight at 37 °C for 18–24 h and absorbance at 600 nm read using a Polarstar Omega (BMG LabTech) plate reader.
(Dilution methods test growth across graded concentrations, often in twofold steps.)

Another assay deals with K. pneumoniae IR8. Briefly: microbe, parasite or virus in culture. Format: cell-based. The following applies: Klebsiella pneumoniae; 2 alone; K. pneumoniae IR8 (blaSHV-1; blaDHA-1; blaCTX-M-15; blaTEM-1; blaNDM-1); read-out: 2 MIC.
From the text: as §4, §5

Another assay addresses M67C NDM-1 (Klebsiella pneumoniae, UniProt C7C422, M67C). The assay can be described thus: 19F-protein NMR binding study. The following applies: M67C NDM-1 labelled with 1,1,1-trifluoro-3-bromo acetone. As to the method:
as §1
Supplementary Fig. 1. 19F NMR analyses of the NDM-1*-di-Zn(II)-2 complex. Titration using 2 gave rise to a new signal corresponding to a 2-NDM-1* complex, even at low concentrations of 2 indicating tight binding; at a 1:1, enzyme:inhibitor ratio (NDM-1*:2) no signals corresponding to uncomplexed NDM-1* species were observed. NDM-1* = NDM-1 M67C variant modified by reaction with BrCH COCF 1.
Supplementary Fig. 2. Cytotoxicity of 1,2 and Staurosporine (a control) using HEK293 cells.
(also on this page, place not known: enzyme: inhibitor NDM -1 BrCH2COCF3 -2 -1 0 1 0.5 1.0 1.5 - Log concentration (µM) Abs 490 HEK293 - 2 HEK293 - 1 Staurosporine HEK293) […]

The record followed here is article PMC4979060, “Structural basis of metallo-β-lactamase, serine-β-lactamase and penicillin-binding protein inhibition by cyclic boronates” (Nature Communications, 2016).

The term pIC50 denotes the negative decadic logarithm of the IC50, by convention in mol/L. `NCc1ccc(C(=O)N[C@H]2Cc3cccc(C(=O)O)c3O[B-]2(O)O)cc1` [compound 2]: the negative logarithm of the IC50 (pIC50) is 7.5 at NDM-1; 4.7 at SPM-1; above 4 at CphA; 8.4 at TEM-1; 5.2 against OXA-10. Moreover, the IC50 at NDM-1 (10 min preincubation) was 0.029 µM; on SPM-1 (10 min preincubation), 16.7 µM; against CphA (10 min preincubation), above 100 µM; at TEM-1 (10 min preincubation) it was 0.003 µM; against OXA-10 (10 min preincubation) it was 5.1 µM; at PBP 3, above 100 µM. For the same molecule, the MIC (in assay [1]; with K. pneumoniae IR8) was above 128 µg/mL throughout. In addition, the “binding to the active site by 19F NMR titration” value on M67C NDM-1 is “tight binding”.
